Literature values as cited in patent US20190161439A1, “MARINE SESSILE ORGANISM-REPELLING COMPOSITION” (BASSERU CHEMICAL CO., LTD., priority 2015, published 2019).

System: Barnacle
Details: reported values

Structure (SMILES) | concentration corresponding to the 50% adhesion inhibition rate to Barnacle (EC50) [µg/mL]
CC(=O)O[C@H]1CC[C@](C)(C#N)CC1 [AF-034] | 0.0084
[C-]#[N+]C(C)(C)CCCCCCCCC=C [AF-035] | 0.03
